The source of these data is ChEMBL document CHEMBL3286384, “Synthesis, cytotoxicity, antimicrobial and anti-biofilm activities of novel pyrazolo[3,4-b]pyridine and pyrimidine functionalized 1,2,3-triazole derivatives” (Bioorg Med Chem Lett, 2014).

Molecules are shown by their SMILES. ≈ marks a conversion by molar mass, not a printed value. Calls of active or inactive are those of the source. No cut-off for these calls is given here. Where only a bound is given, the exact number is not on record here.

Broadly, the IC50 is the point on the concentration scale where inhibition reaches its midpoint. By MIC is commonly meant the lowest concentration found to suppress growth. One may read the MBC as the lowest tested concentration that kills the bacteria rather than only halting them. Higher therefore signals less potent killing.

Assay [1] has as its system MCF7. Nature of the assay: Cytotoxicity against human MCF7 cells after 24 hrs by MTT assay. Format: functional, cell-based. To be noted: MCF7, 24 h. On the technique in general: Tetrazolium assays rely on reduction of a dye to a coloured formazan, in cell work by metabolically active cells.
For assay [2], the system named is A549. Put plainly: Cytotoxicity against human A549 cells after 24 hrs by MTT assay. Format: functional, cell-based. To be noted: A549, 24 h.
Assay [3] relates to HeLa. Nature of the assay: Cytotoxicity against human HeLa cells after 24 hrs by MTT assay. Format: functional, cell-based.
The test system of assay [4] is DU-145. Put plainly: Cytotoxicity against human DU145 cells after 24 hrs by MTT assay. Format: functional, cell-based. The note with it: DU-145, 24 h.
Assay [5] relates to Candida albicans. To be noted: MTCC 3017.
Description: Antimicrobial activity against Candida albicans MTCC 3017 after 24 hrs by well diffusion method
Assay [6] has as its system Pseudomonas aeruginosa. Nature of the assay: Antimicrobial activity against Pseudomonas aeruginosa MTCC 2453 after 24 hrs by well diffusion method. Format: functional. To be noted: MTCC 2453, 24 h.
Assay [7] deals with Raoultella planticola. Nature of the assay: Antimicrobial activity against Klebsiella planticola MTCC 530 after 24 hrs by well diffusion method. To be noted: MTCC 530, 24 h. Format: functional. On the technique in general: A growth-free zone around the sample is the usual read-out of agar diffusion tests.
For assay [8], the system named is Micrococcus luteus. Nature of the assay: Antimicrobial activity against Micrococcus luteus MTCC 2470 after 24 hrs by well diffusion method. The note with it: MTCC 2470, 24 h. It is filed as functional.
Assay [9] deals with Bacillus subtilis. Nature of the assay: Antimicrobial activity against Bacillus subtilis MTCC 121 after 24 hrs by well diffusion method. It is filed as functional. The note with it: MTCC 121, 24 h.
Assay [10] has as its system Staphylococcus aureus. Put plainly: Antimicrobial activity against Staphylococcus aureus MTCC 96 after 24 hrs by well diffusion method. It is filed as functional. The note with it: MTCC 96, 24 h.
Assay [11] concerns Staphylococcus aureus. Nature of the assay: Antimicrobial activity against Staphylococcus aureus MLS-16 MTCC 2940 after 24 hrs by well diffusion method. To be noted: MLS-16 MTCC 2940, 24 h. Format: functional.
The subject of assay [12] is Escherichia coli. Nature of the assay: Antimicrobial activity against Escherichia coli MTCC 739 after 24 hrs by well diffusion method. Format: functional. The note with it: MTCC 739, 24 h.
Assay [13] deals with Pseudomonas aeruginosa. Put plainly: Bactericidal activity against Pseudomonas aeruginosa MTCC 2453 after 24 hrs by agar plating method. Format: functional. To be noted: MTCC 2453, 24 h.
The test system of assay [14] is Staphylococcus aureus. Put plainly: Bactericidal activity against Staphylococcus aureus MTCC 96 after 24 hrs by agar plating method. Format: functional. The note with it: MTCC 96, 24 h.
The subject of assay [15] is Bacillus subtilis. Put plainly: Bactericidal activity against Bacillus subtilis MTCC 121 after 24 hrs by agar plating method. To be noted: MTCC 121, 24 h. It is filed as functional.
Assay [16] deals with Escherichia coli. Put plainly: Bactericidal activity against Escherichia coli MTCC 739 after 24 hrs by agar plating method. It is filed as functional. The note with it: MTCC 739, 24 h.
Assay [17] has as its system Micrococcus luteus. Put plainly: Bactericidal activity against Micrococcus luteus MTCC 2470 after 24 hrs by agar plating method. The note with it: MTCC 2470, 24 h. Format: functional.
The test system of assay [18] is Staphylococcus aureus. Put plainly: Bactericidal activity against Staphylococcus aureus MLS-16 MTCC 2940 after 24 hrs by agar plating method. It is filed as functional. The note with it: MLS-16 MTCC 2940, 24 h.
The subject of assay [19] is Raoultella planticola. Put plainly: Bactericidal activity against Klebsiella planticola MTCC 530 after 24 hrs by agar plating method. Format: functional. To be noted: MTCC 530, 24 h.
In assay [20] the test system is Staphylococcus aureus. Nature of the assay: Antimicrobial activity against Staphylococcus aureus MLS-16 MTCC 2940 assessed as inhibition of biofilm formation after 24 hrs by crystal violet staining-based assay. To be noted: MLS-16 MTCC 2940, 24 h. It is filed as functional, organism-based.
Assay [21] relates to Pseudomonas aeruginosa. Nature of the assay: Antimicrobial activity against Pseudomonas aeruginosa MTCC 2453 assessed as inhibition of biofilm formation after 24 hrs by crystal violet staining-based assay. Format: functional, organism-based. To be noted: MTCC 2453, 24 h.
The subject of assay [22] is Raoultella planticola. Put plainly: Antimicrobial activity against Klebsiella planticola MTCC 530 assessed as inhibition of biofilm formation after 24 hrs by crystal violet staining-based assay. It is filed as functional, organism-based. To be noted: MTCC 530, 24 h.
For assay [23], the system named is Micrococcus luteus. Put plainly: Antimicrobial activity against Micrococcus luteus MTCC 2470 assessed as inhibition of biofilm formation after 24 hrs by crystal violet staining-based assay. It is filed as functional, organism-based. To be noted: MTCC 2470, 24 h.
The test system of assay [24] is Staphylococcus aureus. Put plainly: Antimicrobial activity against Staphylococcus aureus MTCC 96 assessed as inhibition of biofilm formation after 24 hrs by crystal violet staining-based assay. Format: functional, organism-based. The note with it: MTCC 96, 24 h.

Turning to `C=CCn1nc(-n2cc(Cn3c(N)nc(C(F)(F)F)cc3=O)nn2)c2ccc(C(F)(F)F)nc21`, the IC50 in assay [1] is 20.2 µM; in [2], > 100 µM; in assay [3], 18.2 µM; in assay [4] it was > 100 µM.
Take `Nc1nc(C(F)(F)F)cc(=O)n1Cc1cn(-c2nn(CCC(F)(F)C(F)(F)C(F)(F)C(F)(F)C(F)(F)C(F)(F)C(F)(F)C(F)(F)F)c3nc(C(F)(F)F)ccc23)nn1`: the IC50 in assay [1] was > 100 µM; in assay [2] it was 68.2 µM; in assay [3] it was > 100 µM; in assay [4], 88.8 µM.
As to `C=CCn1nc(-n2cc(COc3cc(C(F)(F)F)nc(N)n3)nn2)c2ccc(C(F)(F)F)nc21`, the MIC entry in [5] is “inactive”. The IC50 is 19.4 µM in assay [1], > 100 µM in assay [2], 18.4 µM in [3] and > 100 µM in [4]. Also, the MIC was > 250 µg/mL in assay [6]; > 250 µg/mL in assay [7]; 7.8 µg/mL (≈ 16.1 µM) in assay [8]; > 250 µg/mL in assay [9]; > 250 µg/mL in [10]; > 250 µg/mL in assay [11]. Further, the MIC in assay [12] was > 250 µg/mL.
For the molecule `O=C(O)c1cn(C2CC2)c2cc(N3CCNCC3)c(F)cc2c1=O` [CIPROFLOXACIN], the MIC entry in assay [5] is “inactive”. The MIC in assay [6], in [7], in assay [8], in [9], in assay [10] and in [11] was 0.9 µg/mL (≈ 2.72 µM) in each case. In assay [12], this molecule came in with an MIC of 0.9 µg/mL (≈ 2.72 µM). Further, the MBC is 0.58 µg/mL (≈ 1.75 µM) in assay [13]; 0.58 µg/mL (≈ 1.75 µM) in assay [14]; 1.17 µg/mL (≈ 3.53 µM) in assay [15]; 0.58 µg/mL (≈ 1.75 µM) in assay [16]; 0.58 µg/mL (≈ 1.75 µM) in assay [17]; 1.17 µg/mL (≈ 3.53 µM) in assay [18]. Besides, the MBC in [19] was determined as 1.17 µg/mL (≈ 3.53 µM).
With `CCn1nc(-n2cc(Cn3c(N)nc(C(F)(F)F)cc3=O)nn2)c2ccc(C(F)(F)F)nc21`, the IC50 in assay [1] was 95.2 µM; in assay [2], > 100 µM; in [3], 62.3 µM; in assay [4] it was > 100 µM.
For the molecule `CC[C@H]1OC(=O)[C@H](C)[C@@H](O[C@H]2C[C@@](C)(OC)[C@@H](O)[C@H](C)O2)[C@H](C)[C@@H](O[C@@H]2O[C@H](C)C[C@H](N(C)C)[C@H]2O)[C@](C)(O)C[C@@H](C)C(=O)[C@H](C)[C@@H](O)[C@]1(C)O` [ERYTHROMYCIN], the IC50 in [20] worked out at 0.32 µg/mL (≈ 0.436 µM); in assay [21], 0.26 µg/mL (≈ 0.354 µM); in assay [22], 0.21 µg/mL (≈ 0.286 µM); in assay [23] it was 0.24 µg/mL (≈ 0.327 µM); in assay [24], 0.32 µg/mL (≈ 0.436 µM).
For `CCCCCCCCCCn1nc(-n2cc(Cn3c(N)nc(C(F)(F)F)cc3=O)nn2)c2ccc(C(F)(F)F)nc21`, the IC50 in assay [1] came out at 15.7 µM; in assay [2], 14.3 µM; in assay [3], 13.4 µM; in [4], 17.1 µM.
Taken in the same sequence, the figures for `CCCCCCCCn1nc(-n2cc(Cn3c(N)nc(C(F)(F)F)cc3=O)nn2)c2ccc(C(F)(F)F)nc21` were 11.3 µM, 10.1 µM, 9.4 µM and 12.2 µM.
Take `CCOC(=O)Cn1nc(-n2cc(Cn3c(N)nc(C(F)(F)F)cc3=O)nn2)c2ccc(C(F)(F)F)nc21`: the IC50 in assay [1] is 12.2 µM; in assay [2], 16.2 µM; in assay [3], 11.4 µM; in [4], 18.3 µM.
Turning to `C#CCn1nc(-n2cc(Cn3c(N)nc(C(F)(F)F)cc3=O)nn2)c2ccc(C(F)(F)F)nc21`, the IC50 is 12.4 µM in assay [1], 21.2 µM in assay [2], 10.2 µM in [3] and 23.4 µM in assay [4].
